SMILES strings stand for the structures. “And” between values parts separate entries of the source, which are not always exact repeats. Equal entries are not always repeated. Where two headings read alike, the source gives them in different places. Where only a bound is given, the exact number is not on record here.

These results are taken from patent US12378235B2, “HCK inhibitors for the treatment of fibrosis and cancer” (Icahn School of Medicine At Mount Sinai, priority 2019, dated 2025).

Data set [1] deals with HK2 cells. The data set is described as follows: Anti-fibrosis effect: mRNA levels of fibrosis markers by RT-PCR in HK2 cells. It is filed as cell-based. As to conditions: for mRNA levels of fibrosis markers: FIG. 3A and FIG. 3B. As for the experimental part: Anti-fibrosis effect was investigated by fibrosis markers in mRNA level. […] The mRNA levels of Veminten, FN1 and A-Sma were not affected. HK2 cells were treated with HCK inhibitor Examples 4, 7, and 8 at 10 uM and 20 uM overnight and then stimulated with TGF-beta for 8 hours. mRNA-levels of profibrotic markers by RT-PCR (normalized to GAPDH) from mRNA isolated in the cells. Values are mean±SEM; *P=0.05, […], ***P<0.001 between means; one-way ANOVA with Bonferroni multiple comparison test (FIG. 2B). Finally, it was shown that Examples 7, 8, and 13 reduced the mRNA levels of fibrosis markers (FIG. 3A and FIG. 3B).

The target of a further data set is T1, HCK (Homo sapiens, UniProt P08631).
T1 construct: purchased Reaction Biology Corp
Put plainly: P32 radioactive kinase assay (Reaction Biology Corp), HCK activity inhibition. The format is biochemical. To be noted: for remaining activity at 1 µM: 1 μM compound, read-out: % Enzyme Activity (relative to DMSO controls) HCK (1 μM); for remaining activity at 50 µM: 50 μM compound, read-out: % Enzyme Activity (relative to DMSO controls) HCK (50 μM). As for the experimental part:
HCK activity inhibition efficiency for the inhibitors. Inhibiting efficiency was performed in Reaction Biology with Corp P32 radioactive kinase assay, comparing the compounds of the invention with dasatinib for HCK, Bcr-Abl and other binding kinases identified in reference. Most of the HCK inhibitors of the invention tested have IC50 of HCK activity at about 50 uM concentrations.
HCK inhibiting efficiency was performed in Reaction Biology with Corp P32 radioactive kinase assay. Briefly, HCK kinase was delivered into the substrate solution and gently mixed, then compounds in DMSO were added into the kinase reaction mixture by Acoustic technology (Echo550; Nano liter range), and incubated for 20 minutes at room temperature. 33P-ATP was delivered into the reaction mixture to initiate the reaction. The kinase reaction was incubated for 2 hours at room temperature. Reactions were spotted onto P81 ion exchange paper, and detected kinase activity was measured by filter-binding method.

For data set [2], the system named is HK2 cells. Put plainly: CellTiter 96 AQueous One Solution Cell Proliferation Assay (MTS) in HK2 cells. It is filed as cell-based. To be noted: Homo sapiens, HK-2, 24 hours treatment, MTS (FIG. 1), read-out: concentration that inhibits 50% of HK2 cell proliferation. From the text:
HCK inhibitors reduce cell proliferation. Excessive HCK activation is associated with several types of leukemia and enhances cell proliferation and survival by physical association with oncogenic fusion proteins, and with functional interactions with receptor tyrosine kinases. Elevated HCK activity is also observed in many solid malignancies, including breast and colon cancer, and correlates with decreased patient survival rates. HCK enhances the secretion of growth factors and pro-inflammatory cytokines from myeloid cells and promotes macrophage polarization towards a wound healing and tumor-promoting alternatively activated phenotype. Inhibition of HCK activity, therefore, should inhibit cancerous cell's proliferation. Compounds of the invention were measured for inhibition of cell proliferation with CellTiter 96® AQueous One Solution Cell Proliferation Assay (MTS) from Promega in HK2 cells. The compounds of the invention were diluted to serial concentrations. HK2 cells were cultured in 10% FBS and 1% P/S. The cells were treated with the compounds of the invention for 24 hours and then 20 μl/well of CellTiter 96® AQueous One Solution Reagent was added. Values were normalized to the percentages relative to DMSO controls. Values shown are mean±SEM.

The subject of another data set is SMAD. Put plainly: SMAD binding activity in HK2 cells. The format is cell-based. The text has this:
Inhibition of HCK affects SMAD binding activity. Transforming growth factor-β(TGF-β) is the primary factor that drives fibrosis in most, if not all, forms of chronic kidney disease (CKD). TGF-β1 can induce renal fibrosis via activation of both canonical (Smad-based) and non-canonical (non-Smad-based) signalling pathways, which result in activation of myofibroblasts, excessive production of extracellular matrix (ECM) and inhibition of ECM degradation. The role of Smad proteins in the regulation of fibrosis is complex, with competing profibrotic and antifibrotic actions (including in the regulation of mesenchymal transitioning), and with complex interplay between TGF-β/Smads and other signalling pathways.

A short description of another data set: LDH cytotoxicity assay. It is filed as cell-based. To be noted: different dosages, up to very high dose of 50 uM. As to the method:
LDH cytotoxicity assay for HCK inhibitors cytotoxicity. Toxicity refers to how poisonous or harmful a substance can be. In the context of pharmacology, drug toxicity occurs when a person has accumulated too much of a drug in his bloodstream, leading to adverse effects on the body. Drug toxicity may occur when the dose given is too high or the liver or kidneys are unable to remove the drug from the bloodstream, allowing it to accumulate in the body. Drug toxicity was measured with LDH cytotoxicity assay with different dosages of compounds of the invention.

The mark [3] stands for this setting: HK2 cells treated with 5, 10, 20 uM (FIG. 2A).
[4] abbreviates: second of two replicate columns.

T1 sequence (P08631 whole entry): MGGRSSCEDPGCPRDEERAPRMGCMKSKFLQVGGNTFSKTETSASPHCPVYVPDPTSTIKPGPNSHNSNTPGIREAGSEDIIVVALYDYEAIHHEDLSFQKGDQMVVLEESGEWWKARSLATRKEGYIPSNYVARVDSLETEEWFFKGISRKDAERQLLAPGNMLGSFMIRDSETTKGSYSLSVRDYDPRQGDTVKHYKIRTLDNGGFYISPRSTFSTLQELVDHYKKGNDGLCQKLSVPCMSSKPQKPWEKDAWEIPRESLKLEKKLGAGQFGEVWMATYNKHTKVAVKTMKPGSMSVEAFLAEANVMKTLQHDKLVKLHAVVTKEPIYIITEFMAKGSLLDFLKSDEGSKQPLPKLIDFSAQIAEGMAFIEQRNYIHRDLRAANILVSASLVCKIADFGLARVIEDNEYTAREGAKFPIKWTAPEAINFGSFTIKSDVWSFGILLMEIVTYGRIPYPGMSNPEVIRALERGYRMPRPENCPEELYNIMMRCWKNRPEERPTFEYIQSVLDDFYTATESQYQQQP

As for `COc1cc(-c2nnc3n2N=C(c2ccc(Br)cc2)CS3)cc(OC)c1OC` [Example 4], in the data set on HK2 cells [1] (setting [3]), the “mRNA levels of Veminten, FN1 and A-Sma” value is listed as “not affected”; the “mRNA levels of fibrosis markers collagen1, Snail, Mmp2 and Slug(Snail2)” value was “affected”. In addition, at HCK, the IC50 is < 50 µM and 30 µM.

Take `CCOC(=O)c1cnc(NC(=O)c2cc3cc(Cl)ccc3oc2=O)s1` [Example 7]: in the data set with HK2 cells [1], the “mRNA levels of fibrosis markers” value is on record as “reduced”. Further, the IC50 was 10 µM in the data set on HK2 cells [2] and below 50 µM on HCK. Also, the results for the remaining activity at 1 µM at HCK (first of two replicate columns) and on HCK (setting [4]) were 104% and 114%, respectively. The values for the remaining activity at 50 µM on HCK (first of two replicate columns) and at HCK (setting [4]) were 42.8% and 45%, respectively.

Regarding `CCOC(=O)c1cnc(NC(=O)c2cc3cc(Cl)ccc3[nH]c2=O)s1` [Example 8], in the data set with HK2 cells [1], the “mRNA levels of fibrosis markers” value is given as “reduced”. In addition, the “SMAD activity in HK2 cells” value in the data set on SMAD was “reduce SMAD activity”. Moreover, the IC50 with HK2 cells [2] is 0.5 µM; at HCK, below 50 µM. The remaining activity at 1 µM is 108% at HCK (first of two replicate columns) and 116% on HCK (setting [4]). For the same molecule, the remaining activity at 50 µM at HCK (first of two replicate columns) was 41.2%; on HCK (setting [4]) it was 43.9%.

`CCOC(=O)c1cnc(NC(=O)c2ccc(B3OC(C)(C)C(C)(C)O3)cc2)s1` [Example 9]: on HCK (first of two replicate columns), the remaining activity at 1 µM was 110% and the remaining activity at 50 µM turned out to be 95%. At HCK (setting [4]), the remaining activity at 1 µM was found to be 115% and the remaining activity at 50 µM was determined as 86.3%.

In the case of `CCOC(=O)c1cnc(NC(C#N)c2ccc(B3OC(C)(C)C(C)(C)O3)cc2)s1` (centres unmarked) [Example 10], at HCK (first of two replicate columns), the remaining activity at 1 µM worked out at 104% and the remaining activity at 50 µM was 89.1%. In addition, at HCK (setting [4]), the remaining activity at 1 µM was 99.4% and the remaining activity at 50 µM worked out at 96.5%.

Consider `CCOC(=O)c1cnc(NC(C#N)c2ccc(B(O)O)cc2)s1` (centres unmarked) [Example 11], for which, on HCK (first of two replicate columns), the remaining activity at 1 µM came to 93.5% and the remaining activity at 50 µM was 74.5%. Besides, at HCK (setting [4]), the remaining activity at 1 µM amounted to 103% and the remaining activity at 50 µM came out at 68.5%.

On to `CCOC(=O)c1cnc(NC(C#N)C2=Cc3cc(Cl)cc(Cl)c3OC2c2ccccc2)s1` (centres unmarked) [Example 12], for which the “SMAD activity in HK2 cells” value in the data set with SMAD was “reduce SMAD activity”. The IC50 was 10 µM with HK2 cells [2] and below 50 µM at HCK. Also, the “cytotoxicity (LDH assay)” value in the data set “LDH cytotoxicity assay” is recorded as “some cytotoxicity at very high dose of 50 uM”. Besides, the remaining activity at 1 µM on HCK (first of two replicate columns) was determined as 108%; at HCK (setting [4]), 113%. Besides, the results for the remaining activity at 50 µM on HCK (first of two replicate columns) and on HCK (setting [4]) were 75.9% and 79.5%, respectively.

For the molecule `CCOC(=O)c1cnc(NC(C#N)c2cc(-c3ccccc3)on2)s1` (centres unmarked) [Example 13], the “mRNA levels of fibrosis markers” value with HK2 cells [1] is “reduced”. In addition, the IC50 is 10 µM in the data set on HK2 cells [2] and below 50 µM on HCK. Further, the remaining activity at 1 µM is 109% on HCK (first of two replicate columns) and 113% on HCK (setting [4]). Besides, the figures for the remaining activity at 50 µM on HCK (first of two replicate columns) and on HCK (setting [4]) were 68.4% and 65.5%, respectively.

In the case of `CCOC(=O)c1cnc(NC(=O)/C=C/c2ccccc2)s1` [Example 14], the remaining activity at 1 µM on HCK (first of two replicate columns) came out at 112%; on HCK (setting [4]), 118%. Further, the remaining activity at 50 µM is 93.6% at HCK (first of two replicate columns) and 94.2% at HCK (setting [4]).

As for `CCOC(=O)c1cnc(NC(=O)C2=Cc3cc(Cl)cc(Cl)c3OC2c2ccccc2)s1` (centres unmarked) [Example 15], the “SMAD activity in HK2 cells” value in the data set on SMAD is “reduce SMAD activity”. The IC50 in the data set on HK2 cells [2] is 0.5 µM; at HCK, below 50 µM. In addition, the figures for the remaining activity at 1 µM on HCK (first of two replicate columns) and on HCK (setting [4]) were 86.6% and 83.4%, respectively. Further, the remaining activity at 50 µM at HCK (first of two replicate columns) worked out at 6.63%; at HCK (setting [4]), 5.97%.

`CCOC(=O)c1cnc(NC(=O)c2cc(OC)c(OC)c(OC)c2)s1` [Example 16]: at HCK (first of two replicate columns), the remaining activity at 1 µM stood at 97.5% and the remaining activity at 50 µM was 89.8%. Further, on HCK (setting [4]), the remaining activity at 1 µM worked out at 94% and the remaining activity at 50 µM is 85%.

With `CCOC(=O)c1cnc(NC(=O)c2cc(-c3ccccc3)on2)s1` [Example 17], the remaining activity at 1 µM at HCK (first of two replicate columns) was found to be 114%; on HCK (setting [4]) it was 116%. Also, the values for the remaining activity at 50 µM at HCK (first of two replicate columns) and at HCK (setting [4]) were 112% and 117%, respectively.

In the case of `O=C(Nc1ncc(C(=O)O)s1)c1cc(-c2ccccc2)on1` [Example 18], at HCK (first of two replicate columns), the remaining activity at 1 µM is 107% and the remaining activity at 50 µM worked out at 106%. Besides, at HCK (setting [4]), the remaining activity at 1 µM stood at 95% and the remaining activity at 50 µM came out at 113%.

In the case of `COc1cc(C(=O)Nc2ncc(C(=O)O)s2)cc(OC)c1OC` [Example 19], at HCK (first of two replicate columns), the remaining activity at 1 µM came out at 99.2% and the remaining activity at 50 µM turned out to be 94.1%. Besides, on HCK (setting [4]), the remaining activity at 1 µM is 100% and the remaining activity at 50 µM came to 90.7%.

For `CCOC(=O)c1cnc(NC(=O)c2cc(Cl)cc(Cl)c2)s1` [Example 20], the remaining activity at 1 µM on HCK (first of two replicate columns) turned out to be 102%; at HCK (setting [4]), 110%. Further, the figures for the remaining activity at 50 µM on HCK (first of two replicate columns) and on HCK (setting [4]) were 101% and 97.8%, respectively.

Consider `O=C(Nc1ncc(C(=O)O)s1)c1cc(Cl)cc(Cl)c1` [Example 21], for which the results for the remaining activity at 1 µM on HCK (first of two replicate columns) and on HCK (setting [4]) were 96.2% and 100%, respectively. Further, the remaining activity at 50 µM on HCK (first of two replicate columns) was 76.9%; on HCK (setting [4]), 77.7%.
